{
  "source": "paper PMC12566046",
  "about": "“Arylpiperazinyl-Benzocycloheptapyrrole-Carboxamides Endowed with Dual Anticancer and Antiviral Activities” (Molecules, 2025)",
  "key": {"[1]": {"test_system": "HT29 (colon cancer cell line)", "test": "NCI-60 five-dose assay", "assay_type": "cell-based, human", "settings": "Homo sapiens, HT-29, five doses (10^−4–10^−8 M), read-out: Growth inhibition 50 (GI50)"}, "[2]": {"test_system": "CCRF-CEM (leukemia cell line)", "test": "NCI-60 five-dose assay", "assay_type": "cell-based, human", "settings": "Homo sapiens, five doses (10^−4–10^−8 M), read-out: Growth inhibition 50 (GI50)"}, "[3]": {"test_system": "COLO 205 (colon cancer cell line)", "test": "NCI-60 five-dose assay", "assay_type": "cell-based, human", "settings": "Homo sapiens, five doses (10^−4–10^−8 M), read-out: Growth inhibition 50 (GI50)"}, "[4]": {"test_system": "HCT-15 (colon cancer cell line)", "test": "NCI-60 five-dose assay", "assay_type": "cell-based, human", "settings": "Homo sapiens, five doses (10^−4–10^−8 M), read-out: Growth inhibition 50 (GI50)"}, "[5]": {"test_system": "MALME-3M (melanoma cell line)", "test": "NCI-60 five-dose assay"}, "[6]": {"test_system": "RPMI-8226 (leukemia cell line)", "test": "NCI-60 five-dose assay", "assay_type": "cell-based, human", "settings": "Homo sapiens, five doses (10^−4–10^−8 M), read-out: Growth inhibition 50 (GI50)"}, "Colon Cancer panel": {"test_system": "Colon Cancer panel", "test": "NCI-60 five-dose assay, panel-level GI50 (mean graph midpoint, range)", "assay_type": "cell-based, human", "settings": "Homo sapiens", "experimental": "(§1) Due to these preliminary results, six compounds, 1, 5, 10, 11, 17, and 20, were selected for the five-dose screen NCI-programme against the same panel of tumour cell lines.\n(§2) Next, a mean graph midpoint (MG_MD) was calculated for compounds 1, 5, 10, 11, 17, and 20 and reported as waterfall graphs GI50, TGI, and LC50 in the Supplementary Materials (Figures S69–S86). In Table 9, we reported the average GI50 for the nine-cancer panels, underlining both the activity and selectivity for compounds 1, 10, 11, and 20."}, "Melanoma panel": {"test_system": "Melanoma panel", "test": "NCI-60 five-dose assay, panel-level GI50 (mean graph midpoint, range)", "assay_type": "cell-based, human", "settings": "Homo sapiens", "experimental": "as §1, §2"}, "Leukemia panel": {"test_system": "Leukemia panel", "test": "NCI-60 five-dose assay, panel-level GI50 (mean graph midpoint, range)", "assay_type": "cell-based, human", "settings": "Homo sapiens", "experimental": "as §1, §2"}, "[7]": {"test_system": "HL-60(TB) (leukemia cell line)", "test": "NCI-60 five-dose assay", "assay_type": "cell-based, human", "settings": "Homo sapiens, five doses (10^−4–10^−8 M), read-out: Growth inhibition 50 (GI50)"}, "SR (leukemia cell line)": {"test_system": "SR (leukemia cell line)", "test": "NCI-60 five-dose assay", "assay_type": "cell-based, human", "settings": "Homo sapiens, five doses (10^−4–10^−8 M), read-out: Growth inhibition 50 (GI50)"}, "[8]": {"test_system": "CAKI-1 (renal cancer cell line)", "test": "NCI-60 five-dose assay", "assay_type": "cell-based", "settings": "Homo sapiens, five-dose screen"}, "[9]": {"test_system": "MOLT-4 (leukemia cell line)", "test": "NCI-60 five-dose assay", "assay_type": "cell-based, human", "settings": "Homo sapiens, five doses (10^−4–10^−8 M), read-out: Growth inhibition 50 (GI50)"}, "[10]": {"test_system": "SF-295 (CNS cancer cell line)", "test": "NCI-60 single-dose assay", "assay_type": "cell-based, human", "settings": "human", "in_short": "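Cytotoxicity was screened at a single dose across the NCI-60 human tumour cell panel, which covers leukemia, melanoma and lung, colon, CNS, ovarian, renal, prostate and breast cancers.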"}, "[11]": {"test_system": "NCI cancer panel (all cell lines)", "test": "NCI-60 five-dose assay, overall mean graph midpoint (MG_MID)", "assay_type": "cell-based, human", "settings": "Homo sapiens", "experimental": "as §1, §2"}, "[12]": {"test_system": "UACC-62 (melanoma cell line)", "test": "NCI-60 five-dose assay"}, "[13]": {"test_system": "KM12 (colon cancer cell line)", "test": "NCI-60 five-dose assay", "assay_type": "cell-based, human", "settings": "Homo sapiens, five doses (10^−4–10^−8 M), read-out: Growth inhibition 50 (GI50)"}, "[14]": {"test_system": "SW-620 (colon cancer cell line)", "test": "NCI-60 five-dose assay", "assay_type": "cell-based, human", "settings": "Homo sapiens, SW-620, read-out: Growth inhibition 50 (GI50)"}, "[15]": {"test_system": "MDA-MB-435 (melanoma cell line)", "test": "NCI-60 five-dose assay"}, "[16]": {"test_system": "HCT-116 (colon cancer cell line)", "test": "NCI-60 five-dose assay", "assay_type": "cell-based, human", "settings": "Homo sapiens, five doses (10^−4–10^−8 M), read-out: Growth inhibition 50 (GI50)"}, "Renal Cancer panel": {"test_system": "Renal Cancer panel", "test": "NCI-60 five-dose assay, panel-level GI50 (mean graph midpoint)", "assay_type": "cell-based, human", "settings": "Homo sapiens; Renal Cancer panel average; read-out: GI50 mean graph midpoint (MG_MID)", "experimental": "as §1, §2"}, "Ovarian Cancer panel": {"test_system": "Ovarian Cancer panel", "test": "NCI-60 five-dose assay, panel-level GI50 (mean graph midpoint)", "assay_type": "cell-based, human", "settings": "Homo sapiens; Ovarian Cancer panel average; read-out: GI50 mean graph midpoint (MG_MID)", "experimental": "as §1, §2"}, "Prostate Cancer panel": {"test_system": "Prostate Cancer panel", "test": "NCI-60 five-dose assay, panel-level GI50 (mean graph midpoint)", "assay_type": "cell-based, human", "settings": "Homo sapiens; Prostate Cancer panel average; read-out: GI50 mean graph midpoint (MG_MID)", "experimental": "as §1, §2"}, "Breast Cancer panel": {"test_system": "Breast Cancer panel", "test": "NCI-60 five-dose assay, panel-level GI50 (mean graph midpoint)", "assay_type": "cell-based, human", "settings": "Homo sapiens; Breast Cancer panel average; read-out: GI50 mean graph midpoint (MG_MID)", "experimental": "as §1, §2"}, "CNS Cancer panel": {"test_system": "CNS Cancer panel", "test": "NCI-60 five-dose assay, panel-level GI50 (mean graph midpoint)", "assay_type": "cell-based, human", "settings": "Homo sapiens; CNS Cancer panel average; read-out: GI50 mean graph midpoint (MG_MID)", "experimental": "as §1, §2"}, "[17]": {"test_system": "Non-Small Cell Lung Cancer panel", "test": "NCI-60 five-dose assay, panel-level GI50 (mean graph midpoint)", "assay_type": "cell-based, human", "settings": "Homo sapiens; Non-Small Cell Lung Cancer panel average; read-out: GI50 mean graph midpoint (MG_MID)", "experimental": "as §1, §2"}, "[18]": {"test_system": "UACC-257 (melanoma cell line)", "test": "NCI-60 five-dose assay"}},
  "note": "Like-named read-outs stand apart in the source and are kept apart here.",
  "data": [
    {"compound": "CCN1CCC[C@H]1CNC(=O)c1[nH]c2c(c1Cl)CCCc1ccccc1-2", "note": "[Compound 1, (S)-3-Chloro-N-(1-ethyl-2-pyrrolidinylmethyl)-5,6-dihydro-4H-benzo[6,7]cyclohepta[1,2-b]pyrrol-2-carboxamide]", "values": [
      {"measurement": "GI50", "setting": "[1]", "value": 1.86, "unit": "µM"},
      {"measurement": "GI50", "setting": "[2]", "value": 5.96, "unit": "µM"},
      {"measurement": "GI50", "setting": "[3]", "value": 1.8, "unit": "µM"},
      {"measurement": "GI50", "setting": "[4]", "value": 2.31, "unit": "µM"},
      {"measurement": "GI50", "setting": "[5]; Homo sapiens, Malme-3M, read-out: Growth inhibition 50 (GI50)", "value": 1.54, "unit": "µM"},
      {"measurement": "CC50", "setting": "[5]; Homo sapiens, Malme-3M, read-out: LC50 (molar concentration leading to 50% net cell death)", "value": 5.62, "unit": "µM"},
      {"measurement": "TGI (molar concentration giving total growth inhibition)", "setting": "[5]; MALME-3M", "value": 2.95, "unit": "µM"},
      {"measurement": "GI50", "setting": "[6]", "value": 2.29, "unit": "µM"},
      {"measurement": "GI50", "setting": "Colon Cancer panel; Colon Cancer panel average, read-out: GI50 mean graph midpoint (MG_MID)", "value": 2.34, "unit": "µM"},
      {"measurement": "GI50", "setting": "Colon Cancer panel; five-dose screen, read-out: GI50, range over colon cancer cell lines", "value": "1.8 to 3.12", "unit": "µM"},
      {"measurement": "GI50", "setting": "Melanoma panel; Melanoma panel average, read-out: GI50 mean graph midpoint (MG_MID)", "value": 2.14, "unit": "µM"},
      {"measurement": "GI50", "setting": "Melanoma panel; five-dose screen, number of cell lines as named in the sentence, read-out: GI50, range over melanoma cell lines", "value": "1.54 to 2.03", "unit": "µM"},
      {"measurement": "GI50", "setting": "Leukemia panel; Leukemia panel average, read-out: GI50 mean graph midpoint (MG_MID)", "value": 2.81, "unit": "µM"},
      {"measurement": "GI50", "setting": "Leukemia panel; Leukemia panel, read-out: average GI50 (mean graph midpoint)", "value": 2.82, "unit": "µM"},
      {"measurement": "GI50", "setting": "Leukemia panel; five-dose screen, cell lines as named in the sentence, read-out: GI50, range over leukemia cell lines", "value": "1.76 to 5.96", "unit": "µM"},
      {"measurement": "GI50", "setting": "[7]", "value": 2.6, "unit": "µM"},
      {"measurement": "GI50", "setting": "SR (leukemia cell line)", "value": 2.29, "unit": "µM"},
      {"measurement": "GI50", "setting": "[8]", "value": 2.29, "unit": "µM"},
      {"measurement": "GI50", "setting": "[9]", "value": 3.57, "unit": "µM"},
      {"measurement": "growth inhibition (GI%) and cytotoxicity (negative values)", "setting": "[10]", "value": "−24.35", "unit": "%"},
      {"measurement": "GI50", "setting": "[11]; MG_MID over all panels, read-out: GI50 mean graph midpoint (MG_MID)", "value": 4.26, "unit": "µM"},
      {"measurement": "GI50", "setting": "[11]; all cell lines, read-out: MG_MID Log10 GI50 (converted)", "value": 4.79, "unit": "µM"},
      {"measurement": "GI50", "setting": "[12]; Homo sapiens, UACC-62, read-out: Growth inhibition 50 (GI50)", "value": 1.87, "unit": "µM"},
      {"measurement": "CC50", "setting": "[12]; Homo sapiens, UACC-62, read-out: LC50 (molar concentration leading to 50% net cell death)", "value": 8.32, "unit": "µM"},
      {"measurement": "TGI (molar concentration giving total growth inhibition)", "setting": "[12]; UACC-62", "value": 3.98, "unit": "µM"},
      {"measurement": "GI50", "setting": "[13]", "value": 3.02, "unit": "µM"},
      {"measurement": "GI50", "setting": "[14]", "value": 1.75, "unit": "µM"},
      {"measurement": "GI50", "setting": "[15]; Homo sapiens, MDA-MB-435, read-out: Growth inhibition 50 (GI50)", "value": 1.76, "unit": "µM"},
      {"measurement": "CC50", "setting": "[15]; Homo sapiens, MDA-MB-435, read-out: LC50 (molar concentration leading to 50% net cell death)", "value": 5.62, "unit": "µM"},
      {"measurement": "TGI (molar concentration giving total growth inhibition)", "setting": "[15]; MDA-MB-435", "value": 3.55, "unit": "µM"},
      {"measurement": "GI50", "setting": "[16]", "value": 3.12, "unit": "µM"},
      {"measurement": "GI50", "setting": "Renal Cancer panel", "value": 5.25, "unit": "µM"},
      {"measurement": "GI50", "setting": "Ovarian Cancer panel", "value": 2.29, "unit": "µM"},
      {"measurement": "GI50", "setting": "Prostate Cancer panel", "value": 8.13, "unit": "µM"},
      {"measurement": "GI50", "setting": "Breast Cancer panel", "value": 4.47, "unit": "µM"},
      {"measurement": "GI50", "setting": "CNS Cancer panel", "value": 4.79, "unit": "µM"},
      {"measurement": "GI50", "setting": "[17]", "value": 7.24, "unit": "µM"},
      {"measurement": "GI50", "setting": "[18]; Homo sapiens, UACC-257, read-out: Growth inhibition 50 (GI50)", "value": 1.88, "unit": "µM"},
      {"measurement": "CC50", "setting": "[18]; Homo sapiens, UACC-257, read-out: LC50 (molar concentration leading to 50% net cell death)", "value": 8.51, "unit": "µM"},
      {"measurement": "TGI (molar concentration giving total growth inhibition)", "setting": "[18]; UACC-257", "value": 3.98, "unit": "µM"}
    ]}
  ]
}
